This test deals with A375 melanoma cells (B-Raf V600E mutation). As to the kind of experiment: A375 (A375_P-ERK) cell activity / cell growth inhibition assay. Type of test: cell-based, human. The conditions noted are these: Homo sapiens, A-375; A375 cells (text: A375_P-ERK).
The compound `CCCNS(=O)(=O)Nc1cccc(C(=O)c2c[nH]c3ncc(-c4cnc(C5CC5)nc4)cc23)c1F` [P-0251, [5-(2-cyclopropylpyrimidin-5-yl)-1H-pyrrolo[2,3-b]pyridin-3-yl]-[2-fluoro-3-(propylsulfamoylamino)phenyl]methanone] showed a half-maximal inhibitory concentration (IC50) of over 1 µM.
Then `CN(C1CC1)S(=O)(=O)Nc1ccc(F)c(C(=O)c2c[nH]c3ncc(-c4cnc(C5CC5)nc4)cc23)c1F` [P-0252, 3-[3-[[cyclopropyl(methyl)sulfamoyl]amino]-2,6-difluoro-benzoyl]-5-(2-cyclopropylpyrimidin-5-yl)-1H-pyrrolo[2,3-b]pyridine], with under 1 µM; and `NC(=O)C1(c2ccc(-c3cnc4[nH]cc(C(=O)c5cccc(NS(=O)(=O)N6CCCC6)c5F)c4c3)cc2)CC1` [P-0253, 1-[4-[3-[2-fluoro-3-(pyrrolidin-1-ylsulfonylamino)benzoyl]-1H-pyrrolo[2,3-b]pyridin-5-yl]phenyl]cyclopropanecarboxamide], with over 1 µM.
`CCOc1ncc(-c2cnc3[nH]cc(C(=O)c4c(F)ccc(NS(=O)(=O)N(C)CC)c4F)c3c2)cn1` [P-0256, 5-(2-ethoxypyrimidin-5-yl)-3-[3-[[ethyl(methyl)sulfamoyl]amino]-2,6-difluoro-benzoyl]-1H-pyrrolo[2,3-b]pyridine] came in with a half-inhibitory concentration (IC50) of under 1 µM.
Then `CCN(C)S(=O)(=O)Nc1ccc(F)c(C(=O)c2c[nH]c3ncc(-c4cnc(N5CCOCC5)nc4)cc23)c1F` [P-0258, 4-[5-[3-[3-[[ethyl(methyl)sulfamoyl]amino]-2,6-difluoro-benzoyl]-1H-pyrrolo[2,3-b]pyridin-5-yl]pyrimidin-2-yl]morpholine], with under 1 µM; and `CCN(C)S(=O)(=O)Nc1ccc(F)c(C(=O)c2c[nH]c3ncc(-c4cccc(N5CCOCC5)c4)cc23)c1F` [P-0259, 4-[3-[3-[3-[[ethyl(methyl)sulfamoyl]amino]-2,6-difluoro-benzoyl]-1H-pyrrolo[2,3-b]pyridin-5-yl]phenyl]morpholine], with under 1 µM; and `CN1CCN(c2ncc(-c3cnc4[nH]cc(C(=O)c5c(F)ccc(NS(=O)(=O)N6CCCC6)c5F)c4c3)cn2)CC1` [P-0260, N-[2,4-difluoro-3-[5-[2-(4-methylpiperazin-1-yl)pyrimidin-5-yl]-1H-pyrrolo[2,3-b]pyridine-3-carbonyl]phenyl]pyrrolidine-1-sulfonamide], with under 1 µM.
For the compound `O=C(c1c(F)ccc(NS(=O)(=O)N2CCCC2)c1F)c1c[nH]c2ncc(-c3cnc(N4CCNCC4)nc3)cc12` [P-0261, N-[2,4-difluoro-3-[5-(2-piperazin-1-ylpyrimidin-5-yl)-1H-pyrrolo[2,3-b]pyridine-3-carbonyl]phenyl]pyrrolidine-1-sulfonamide], the 50% inhibitory concentration (IC50) was under 1 µM.
`O=C(c1c(F)ccc(NS(=O)(=O)N2CCCC2)c1F)c1c[nH]c2ncc(-c3cnc(N4CCC(O)CC4)nc3)cc12` [P-0262, N-[2,4-difluoro-3-[5-[2-(4-hydroxy-1-piperidyl)pyrimidin-5-yl]-1H-pyrrolo[2,3-b]pyridine-3-carbonyl]phenyl]pyrrolidine-1-sulfonamide] displayed a concentration for half-maximal inhibition (IC50) of under 1 µM.
In the case of `CCN(C)S(=O)(=O)Nc1ccc(F)c(C(=O)c2c[nH]c3ncc(-c4cnc(N5CCN(C)CC5)nc4)cc23)c1F` [P-0263, 3-[3-[[ethyl(methyl)sulfamoyl]amino]-2,6-difluoro-benzoyl]-5-[2-(4-methylpiperazin-1-yl)pyrimidin-5-yl]-1H-pyrrolo[2,3-b]pyridine], the IC50 was under 1 µM.
For `CC(C)(O)c1nc(-c2cnc3[nH]cc(C(=O)c4c(F)ccc(NS(=O)(=O)N5CCCC5)c4F)c3c2)cs1` [P-0265, N-[2,4-difluoro-3-[5-[2-(1-hydroxy-1-methyl-ethyl)thiazol-4-yl]-1H-pyrrolo[2,3-b]pyridine-3-carbonyl]phenyl]pyrrolidine-1-sulfonamide], the 50% inhibitory concentration (IC50) was under 1 µM.
The result for `CCN(C)S(=O)(=O)Nc1ccc(F)c(C(=O)c2c[nH]c3ncc(-c4cnc(N5CCNCC5)nc4)cc23)c1F` [P-0268, 3-[3-[[ethyl(methyl)sulfamoyl]amino]-2,6-difluoro-benzoyl]-5-(2-piperazin-1-ylpyrimidin-5-yl)-1H-pyrrolo[2,3-b]pyridine] reads under 1 µM; that for `O=C(c1c(F)ccc(NS(=O)(=O)N2CCCC2)c1F)c1c[nH]c2ncc(-c3cnc(N4CCC4)nc3)cc12` [P-0269, N-[3-[5-[2-(azetidin-1-yl)pyrimidin-5-yl]-1H-pyrrolo[2,3-b]pyridine-3-carbonyl]-2,4-difluoro-phenyl]pyrrolidine-1-sulfonamide], under 1 µM; that for `C[C@@H]1CCN(S(=O)(=O)Nc2cccc(C(=O)c3c[nH]c4ncc(-c5cnc(C6CC6)nc5)cc34)c2F)C1` [P-0271, (3R)—N-[3-[5-(2-cyclopropylpyrimidin-5-yl)-1H-pyrrolo[2,3-b]pyridine-3-carbonyl]-2-fluoro-phenyl]-3-methyl-pyrrolidine-1-sulfonamide], under 1 µM.
Then `O=C(c1c(F)ccc(NS(=O)(=O)N2CCCC2)c1F)c1c[nH]c2ncc(-c3ccncc3)cc12` [P-0273, N-[2,4-difluoro-3-[5-(4-pyridyl)-1H-pyrrolo[2,3-b]pyridine-3-carbonyl]phenyl]pyrrolidine-1-sulfonamide], with under 1 µM; and `O=C(c1cccc(NS(=O)(=O)N2CCCC2)c1F)c1c[nH]c2ncc(C3CC3)cc12` [P-0274, N-[3-(5-cyclopropyl-1H-pyrrolo[2,3-b]pyridine-3-carbonyl)-2-fluoro-phenyl]pyrrolidine-1-sulfonamide], with under 1 µM.
The compound `CCN(C)S(=O)(=O)Nc1ccc(F)c(C(=O)c2c[nH]c3ncc(-c4cnc(N5CCC(O)CC5)nc4)cc23)c1F` [P-0275] showed a half-inhibitory concentration (IC50) of under 1 µM.
Then `CCN(C)S(=O)(=O)Nc1ccc(F)c(C(=O)c2c[nH]c3ncc(-c4cccc(C5(C#N)CC5)c4)cc23)c1F` [P-0276, 5-[3-(1-cyanocyclopropyl)phenyl]-3-[3-[[ethyl(methyl)sulfamoyl]amino]-2,6-difluoro-benzoyl]-1H-pyrrolo[2,3-b]pyridine], with under 1 µM; and `CCN(C)S(=O)(=O)Nc1ccc(F)c(C(=O)c2c[nH]c3ncc(-c4cnc(N5CCC5)nc4)cc23)c1F` [P-0277, 5-[2-(azetidin-1-yl)pyrimidin-5-yl]-3-[3-[[ethyl(methyl)sulfamoyl]amino]-2,6-difluoro-benzoyl]-1H-pyrrolo[2,3-b]pyridine], with under 1 µM.
Then `Nc1ncc(-c2cnc3[nH]cc(C(=O)c4c(F)ccc(NS(=O)(=O)N5CCCC5)c4F)c3c2)cn1` [P-0279, N-[3-[5-(2-aminopyrimidin-5-yl)-1H-pyrrolo[2,3-b]pyridine-3-carbonyl]-2,4-difluoro-phenyl]pyrrolidine-1-sulfonamide], with over 1 µM; and `Nc1nccc(-c2cnc3[nH]cc(C(=O)c4c(F)ccc(NS(=O)(=O)N5CCCC5)c4F)c3c2)n1` [P-0280, N-[3-[5-(2-aminopyrimidin-4-yl)-1H-pyrrolo[2,3-b]pyridine-3-carbonyl]-2,4-difluoro-phenyl]pyrrolidine-1-sulfonamide], with under 1 µM; and `O=C(c1cccc(NS(=O)(=O)N2CCCC2)c1F)c1c[nH]c2ncc(-c3ccncc3)cc12` [P-0281, N-[2-fluoro-3-[5-(4-pyridyl)-1H-pyrrolo[2,3-b]pyridine-3-carbonyl]phenyl]pyrrolidine-1-sulfonamide], with under 1 µM.
For the compound `O=C(c1c(F)ccc(NS(=O)(=O)N2CCCC2)c1F)c1c[nH]c2ncc(-c3ccnc(N4CCOCC4)n3)cc12` [P-0282, N-[2,4-difluoro-3-[5-(2-morpholinopyrimidin-4-yl)-1H-pyrrolo[2,3-b]pyridine-3-carbonyl]phenyl]pyrrolidine-1-sulfonamide], the IC50 is under 1 µM.
The result for `CCN(C)S(=O)(=O)Nc1ccc(F)c(C(=O)c2c[nH]c3ncc(-c4ccnc(F)c4)cc23)c1F` [P-0283, 3-[3-[[ethyl(methyl)sulfamoyl]amino]-2,6-difluoro-benzoyl]-5-(2-fluoro-4-pyridyl)-1H-pyrrolo[2,3-b]pyridine] reads over 1 µM.
`O=C(c1c(F)ccc(NS(=O)(=O)N2CCCC2)c1F)c1c[nH]c2ncc(-c3ccnc(N4CCOCC4)c3)cc12` [P-0284, N-[2,4-difluoro-3-[5-(2-morpholino-4-pyridyl)-1H-pyrrolo[2,3-b]pyridine-3-carbonyl]phenyl]pyrrolidine-1-sulfonamide] yielded a half-inhibitory concentration (IC50) of under 1 µM.
Compound `CN1CCN(c2cc(-c3cnc4[nH]cc(C(=O)c5c(F)ccc(NS(=O)(=O)N6CCCC6)c5F)c4c3)ccn2)CC1` [P-0285, N-[2,4-difluoro-3-[5-[2-(4-methylpiperazin-1-yl)-4-pyridyl]-1H-pyrrolo[2,3-b]pyridine-3-carbonyl]phenyl]pyrrolidine-1-sulfonamide] yielded an IC50 of under 1 µM.
The result for `COc1cc(-c2cnc3[nH]cc(C(=O)c4c(F)ccc(NS(=O)(=O)N5CCCC5)c4F)c3c2)ccn1` [P-0287, N-[2,4-difluoro-3-[5-(2-methoxy-4-pyridyl)-1H-pyrrolo[2,3-b]pyridine-3-carbonyl]phenyl]pyrrolidine-1-sulfonamide] reads under 1 µM.
For the compound `O=C(c1c(F)ccc(NS(=O)(=O)N2CC[C@H](F)C2)c1F)c1c[nH]c2ncc(-c3cnc(C4CC4)nc3)cc12` [P-0289, (3S)—N-[3-[5-(2-cyclopropylpyrimidin-5-yl)-1H-pyrrolo[2,3-b]pyridine-3-carbonyl]-2,4-difluoro-phenyl]-3-fluoro-pyrrolidine-1-sulfonamide], the IC50 was under 1 µM.
In the case of `CCN(C)S(=O)(=O)Nc1ccc(F)c(C(=O)c2c[nH]c3ncc(-c4cnc(N(C)C)nc4)cc23)c1F` [P-0292, 5-[2-(dimethylamino)pyrimidin-5-yl]-3-[3-[[ethyl(methyl)sulfamoyl]amino]-2,6-difluoro-benzoyl]-1H-pyrrolo[2,3-b]pyridine], the IC50 was under 1 µM.
For `CCN(C)S(=O)(=O)Nc1ccc(F)c(C(=O)c2c[nH]c3ncc(-c4cnc(N5CCCC5)nc4)cc23)c1F` [P-0293, 3-[3-[[ethyl(methyl)sulfamoyl]amino]-2,6-difluoro-benzoyl]-5-(2-pyrrolidin-1-ylpyrimidin-5-yl)-1H-pyrrolo[2,3-b]pyridine], the IC50 is under 1 µM.

Values taken from US11337976B2 (Plexxikon Inc., priority 2011, dated 2022).
